# What was measured:
# Type in all cases: biochemical
# [1] = biological target: T1, DNA methyltransferase 1 (RFTS(-) DNMT1) (Homo sapiens, UniProt P26358); assay: endonuclease-coupled DNA methylation assay (IC50); supported by DSF (+[…] °C), FP DNA competition and detergent test
# T1 construct: RFTS(-) DNMT1 (amino acids 621–1616)
# DNMT3a = biological target: T2, DNMT3a (Homo sapiens, UniProt Q9Y6K1); assay: endonuclease-coupled DNA methylation assay, single concentration […] ([…] activity remaining); details: read-out: DNMT3a catalytic domain
# T2 construct: C-terminal catalytic domain of DNMT3a (amino acids 611–912)
# [2] = biological target: T1, DNA methyltransferase 1 (RFTS(-) DNMT1); assay: endonuclease-coupled DNA methylation kinetics (Ki); IC50 […]; supported by DSF (+[…] °C), FP DNA competition and detergent test
# T1 sequence (P26358 621-1616): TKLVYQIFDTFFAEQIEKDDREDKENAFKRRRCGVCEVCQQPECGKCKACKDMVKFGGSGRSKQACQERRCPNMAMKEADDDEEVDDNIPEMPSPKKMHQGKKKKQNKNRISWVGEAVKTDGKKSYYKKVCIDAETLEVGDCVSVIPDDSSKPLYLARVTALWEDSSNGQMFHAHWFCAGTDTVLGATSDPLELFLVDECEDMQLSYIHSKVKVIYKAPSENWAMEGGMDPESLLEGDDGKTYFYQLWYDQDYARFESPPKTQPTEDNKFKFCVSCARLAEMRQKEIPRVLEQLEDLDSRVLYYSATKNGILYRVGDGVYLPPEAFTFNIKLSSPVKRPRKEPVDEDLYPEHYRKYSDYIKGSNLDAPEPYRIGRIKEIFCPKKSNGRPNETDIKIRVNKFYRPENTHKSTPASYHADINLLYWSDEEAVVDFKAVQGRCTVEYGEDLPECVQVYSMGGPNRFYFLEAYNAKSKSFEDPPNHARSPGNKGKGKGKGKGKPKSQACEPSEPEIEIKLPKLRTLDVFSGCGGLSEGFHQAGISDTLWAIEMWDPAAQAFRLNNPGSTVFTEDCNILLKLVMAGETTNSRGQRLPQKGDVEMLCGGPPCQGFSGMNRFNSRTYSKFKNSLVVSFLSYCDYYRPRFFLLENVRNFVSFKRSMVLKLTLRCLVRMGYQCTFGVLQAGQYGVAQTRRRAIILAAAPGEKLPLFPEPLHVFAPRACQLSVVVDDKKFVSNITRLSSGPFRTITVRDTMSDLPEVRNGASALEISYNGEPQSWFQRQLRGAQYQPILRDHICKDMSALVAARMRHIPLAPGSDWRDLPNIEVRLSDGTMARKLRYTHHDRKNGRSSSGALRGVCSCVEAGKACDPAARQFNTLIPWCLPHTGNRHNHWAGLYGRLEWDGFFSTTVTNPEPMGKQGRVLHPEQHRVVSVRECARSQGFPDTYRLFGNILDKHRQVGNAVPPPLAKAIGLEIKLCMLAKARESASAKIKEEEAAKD
# T2 sequence (Q9Y6K1 611-912): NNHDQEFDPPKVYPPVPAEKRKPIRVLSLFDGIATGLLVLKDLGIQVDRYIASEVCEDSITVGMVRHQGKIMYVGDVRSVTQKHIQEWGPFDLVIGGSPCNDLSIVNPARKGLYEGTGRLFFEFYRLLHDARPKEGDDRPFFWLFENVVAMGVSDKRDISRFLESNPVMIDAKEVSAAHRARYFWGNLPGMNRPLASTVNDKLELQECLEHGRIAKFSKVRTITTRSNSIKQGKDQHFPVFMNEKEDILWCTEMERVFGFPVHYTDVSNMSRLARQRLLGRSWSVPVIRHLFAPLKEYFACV
structure (smiles),measurement,setting,value
Cc1ccc(NC(=O)c2ccc3c(c2O)C(=O)c2ccccc2C3=O)cc1 [A11],IC50,[1],59 ± 10 µM
"CC(=O)NCCc1ccc(O)c(-c2c(O)c(O)c3c(c2O)C(=O)c2c(cc(O)c(C(=O)O)c2C(=O)O)C3=O)c1 [LCA, laccaic acid A]",activity at 100 µM,DNMT3a,32 ± 1%
COc1cc(C(=O)Nc2ccc3c(c2)C(=O)c2ccccc2C3=O)cc(OC)c1OC [A13],Ki,[2],13 ± 3 µM

# From paper PMC6629088, “Substituted anthraquinones represent a potential scaffold for DNA methyltransferase 1-specific inhibitors” (PLoS ONE, 2019)
